Source: US7772241B2, “Variolin derivatives and their use as antitumor agents” (Pharma Mar S.A., priority 2001, dated 2010)

Experiments:
PANC-1 = assay: Inhibition of cells growth by colorimetric (SRB) assay, PANC-1; conditions: for GI50 / CC50: Homo sapiens, PANC-1, 48 h; for GI50: read-out: GI50 PANC-1, SRB assay, 48 hours exposure; for CC50: read-out: LC50 PANC-1, SRB assay, 48 hours exposure; for TGI PANC-1: SRB assay, 48 hours exposure
Procedure, shortened: (§1)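 Human tumour cells seeded at 5×10^3/well in RPMI 1640 10% FBS, attached 18 h, then exposed 48 h to samples at 10 to 10^−8 μg/ml in DMSO/EtOH/PBS (0.5:0.5:99). Growth read by SRB staining after TCA fixation, OD 490 nm, triplicate wells; GI, TGI and LC derived.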

DU-145 = assay: Inhibition of cells growth by colorimetric (SRB) assay, DU-145; conditions: for GI50 / CC50: Homo sapiens, DU-145, 48 h; for GI50: read-out: GI50 DU-145, SRB assay, 48 hours exposure; for CC50: read-out: LC50 DU-145, SRB assay, 48 hours exposure; for TGI DU-145: SRB assay, 48 hours exposure
Procedure, shortened: as §1

SK-OV-3 = assay: Inhibition of cells growth by colorimetric (SRB) assay, SK-OV-3; conditions: for GI50 / CC50: Homo sapiens, SK-OV-3, 48 h; for GI50: read-out: GI50 SKOV-3, SRB assay, 48 hours exposure; for CC50: read-out: LC50 SKOV-3, SRB assay, 48 hours exposure; for TGI SKOV-3: SRB assay, 48 hours exposure
Procedure, shortened: as §1

HT-29 = assay: Inhibition of cells growth by colorimetric (SRB) assay, HT-29; conditions: for GI50 / CC50: Homo sapiens, HT-29, 48 h; for GI50: read-out: GI50 HT-29, SRB assay, 48 hours exposure; for CC50: read-out: LC50 HT-29, SRB assay, 48 hours exposure; for TGI HT-29: SRB assay, 48 hours exposure
Procedure, shortened: as §1

SK-MEL-28 = assay: Inhibition of cells growth by colorimetric (SRB) assay, SK-MEL-28; conditions: for GI50 / CC50: Homo sapiens, SK-MEL-28, 48 h; for GI50: read-out: GI50 MEL-28, SRB assay, 48 hours exposure; for CC50: read-out: LC50 MEL-28, SRB assay, 48 hours exposure; for TGI MEL-28: SRB assay, 48 hours exposure
Procedure, shortened: as §1

IGROV-1 = assay: Inhibition of cells growth by colorimetric (SRB) assay, IGROV-1; conditions: for GI50 / CC50: Homo sapiens, IGROV-1, 48 h; for GI50: read-out: GI50 IGROV, SRB assay, 48 hours exposure; for CC50: read-out: LC50 IGROV, SRB assay, 48 hours exposure; for TGI IGROV: SRB assay, 48 hours exposure
Procedure, shortened: as §1

LNCaP = assay: Inhibition of cells growth by colorimetric (SRB) assay, LNCaP; conditions: for GI50 / CC50: Homo sapiens, LNCaP, 48 h; for GI50: read-out: GI50 LN-caP, SRB assay, 48 hours exposure; for CC50: read-out: LC50 LN-caP, SRB assay, 48 hours exposure; for TGI LN-caP: SRB assay, 48 hours exposure
Procedure, shortened: as §1

SK-BR-3 = assay: Inhibition of cells growth by colorimetric (SRB) assay, SK-BR-3; conditions: for GI50 / CC50: Homo sapiens, SK-BR-3, 48 h; for GI50: read-out: GI50 SK-BR-3, SRB assay, 48 hours exposure; for CC50: read-out: LC50 SK-BR-3, SRB assay, 48 hours exposure; for TGI SK-BR-3: SRB assay, 48 hours exposure
Procedure, shortened: as §1

LoVo-Dox = assay: Inhibition of cells growth by colorimetric (SRB) assay, LoVo-Dox; conditions: for GI50 / CC50: Homo sapiens, 48 h; for GI50: read-out: GI50 LOVO-DOX, SRB assay, 48 hours exposure; for CC50: read-out: LC50 LOVO-DOX, SRB assay, 48 hours exposure; for TGI LOVO-DOX: SRB assay, 48 hours exposure
Procedure, shortened: as §1

[1] = Inhibition of cells growth by colorimetric (SRB) assay, HMEC1; conditions: human, HMEC1 cells, LC50 H-MEC-1, SRB assay, 48 hours exposure
HMEC1 = assay: as above; conditions: for GI50: Homo sapiens, HMEC-1, 48 h, read-out: GI50 H-MEC-1, SRB assay, 48 hours exposure; for TGI H-MEC-1: SRB assay, 48 hours exposure, in M (unit assumed)
K-562 = assay: Inhibition of cells growth by colorimetric (SRB) assay, K-562; conditions: for GI50 / CC50: Homo sapiens, K562, 48 h; for GI50: read-out: GI50 K-562, SRB assay, 48 hours exposure; for CC50: read-out: LC50 K-562, SRB assay, 48 hours exposure; for TGI K-562: SRB assay, 48 hours exposure
Procedure, shortened: as §1

IGROV-ET = assay: Inhibition of cells growth by colorimetric (SRB) assay, IGROV-ET; conditions: for GI50 / CC50: Homo sapiens, 48 h; for GI50: read-out: GI50 IGROV-ET, SRB assay, 48 hours exposure; for CC50: read-out: LC50 IGROV-ET, SRB assay, 48 hours exposure; for TGI IGROV-ET: SRB assay, 48 hours exposure
Procedure, shortened: as §1

LoVo = assay: Inhibition of cells growth by colorimetric (SRB) assay, LoVo; conditions: for GI50 / CC50: Homo sapiens, LoVo, 48 h; for GI50: read-out: GI50 LOVO, SRB assay, 48 hours exposure; for CC50: read-out: LC50 LOVO, SRB assay, 48 hours exposure; for TGI LOVO: SRB assay, 48 hours exposure
Procedure, shortened: as §1

A-549 = assay: Inhibition of cells growth by colorimetric (SRB) assay, A-549; conditions: for GI50 / CC50: Homo sapiens, A549, 48 h; for GI50: read-out: GI50 A-549, SRB assay, 48 hours exposure; for CC50: read-out: LC50 A-549, SRB assay, 48 hours exposure; for TGI A-549: SRB assay, 48 hours exposure
Procedure, shortened: as §1

C[S+]([O-])c1nccc(-c2c3c(Cl)ccnc3n3c(N)nccc23)n1 (stereo not drawn) [Compound 110]
GI50 (PANC-1): 14.5 µM | CC50 (PANC-1): ≥ 27.9 µM | TGI PANC-1 (PANC-1): 2.79E−05 | GI50 (DU-145): 2.03 µM | CC50 (DU-145): ≥ 27.9 µM | TGI DU-145 (DU-145): 8.97E−06 | GI50 (SK-OV-3): 11.9 µM | CC50 (SK-OV-3): ≥ 27.9 µM | TGI SKOV-3 (SK-OV-3): 2.79E−05 | GI50 (HT-29): 4.15 µM | CC50 (HT-29): ≥ 27.9 µM | TGI HT-29 (HT-29): 2.79E−05 | GI50 (SK-MEL-28): 5.55 µM | CC50 (SK-MEL-28): ≥ 27.9 µM | TGI MEL-28 (SK-MEL-28): 2.79E−05 | GI50 (IGROV-1): 14.3 µM | CC50 (IGROV-1): ≥ 27.9 µM | TGI IGROV (IGROV-1): 2.79E−05 | GI50 (LNCaP): 1.45 µM | CC50 (LNCaP): 16.7 µM | TGI LN-caP (LNCaP): 4.71E−06 | GI50 (SK-BR-3): 0.92 µM | CC50 (SK-BR-3): 11.6 µM | TGI SK-BR-3 (SK-BR-3): 1.98E−06 | GI50 (LoVo-Dox): 2.04 µM | CC50 (LoVo-Dox): ≥ 27.9 µM | TGI LOVO-DOX (LoVo-Dox): 1.21E−05 | CC50 at 48 h [1]: ≥ 27.9 µM | GI50 (HMEC1): 1.7 µM | TGI H-MEC-1 (HMEC1): 1.08E−05 | GI50 (K-562): 9.92 µM | CC50 (K-562): ≥ 27.9 µM | TGI K-562 (K-562): 2.79E−05 | GI50 (IGROV-ET): 10.9 µM | CC50 (IGROV-ET): ≥ 27.9 µM | TGI IGROV-ET (IGROV-ET): 2.79E−05 | GI50 (LoVo): 1.38 µM | CC50 (LoVo): ≥ 27.9 µM | TGI LOVO (LoVo): 6.21E−06 | GI50 (A-549): 11 µM | CC50 (A-549): ≥ 27.9 µM | TGI A-549 (A-549): 2.79E−05

CS(=O)(=O)c1nccc(-c2c3c(Cl)ccnc3n3c(N)nccc23)n1 [Compound 111]
GI50 (PANC-1): 3.07 µM | CC50 (PANC-1): 24.6 µM | TGI PANC-1 (PANC-1): 8.70E−06 | GI50 (DU-145): 1.94 µM | CC50 (DU-145): 16.8 µM | TGI DU-145 (DU-145): 6.40E−06 | GI50 (SK-OV-3): 2.05 µM | CC50 (SK-OV-3): 21.8 µM | TGI SKOV-3 (SK-OV-3): 6.88E−06 | GI50 (HT-29): 5.34 µM | CC50 (HT-29): 26.7 µM | TGI HT-29 (HT-29): 1.66E−05 | GI50 (SK-MEL-28): 1.25 µM | CC50 (SK-MEL-28): 15.7 µM | TGI MEL-28 (SK-MEL-28): 5.15E−06 | GI50 (IGROV-1): 3.55 µM | CC50 (IGROV-1): 25.9 µM | TGI IGROV (IGROV-1): 9.60E−06 | GI50 (LNCaP): 4.3 µM | CC50 (LNCaP): 19.9 µM | TGI LN-caP (LNCaP): 9.26E−06 | GI50 (SK-BR-3): 4.35 µM | CC50 (SK-BR-3): 21.3 µM | TGI SK-BR-3 (SK-BR-3): 9.69E−06 | GI50 (LoVo-Dox): 1.51 µM | CC50 (LoVo-Dox): 26.7 µM | TGI LOVO-DOX (LoVo-Dox): 7.07E−06 | CC50 at 48 h [1]: 0.603 µM | GI50 (HMEC1): 0.00108 µM | TGI H-MEC-1 (HMEC1): 1.53E−08 | GI50 (K-562): 7.26 µM | CC50 (K-562): 26.7 µM | TGI K-562 (K-562): 1.59E−05 | GI50 (IGROV-ET): 3.87 µM | CC50 (IGROV-ET): 26.7 µM | TGI IGROV-ET (IGROV-ET): 1.10E−05 | GI50 (LoVo): 1.54 µM | CC50 (LoVo): 26.7 µM | TGI LOVO (LoVo): 6.99E−06 | GI50 (A-549): 4.35 µM | CC50 (A-549): 26.7 µM | TGI A-549 (A-549): 1.30E−05
